Measured values published in patent publication US20080096967A1, “Formulations for Injection of Catecholic Butanes, Including Ndga Compounds, Into Animals” (priority 2005, published 2008).

Experiments:
[1] = Solubility of M4N in water-soluble organic solvents (Table 20, visual inspection); format: physicochemical
Protocol: A 100 mL solution of M4N at a concentration of about 25 mg/mL in PEG 300 was made as follows. About 100 mL of PEG 300 were added to a glass beaker containing a stir bar. The beaker was placed on a magnetic plate and the stir bar was set to stir at medium speed. About 2.5 g of M4N were slowly added to the PEG 300 in the center of the beaker with the aid of a spatula to prevent M4N from sticking to the beaker wall. The M4N/PEG 300 mixture was stirred for 24 hr or until all M4N had dissolved or was uniformly suspended without any clumps being present. The M4N/PEG 300 mixture was optionally heated at about 60° C. for about 30 min. (or longer if a larger volume of solution was desired, for example, 1 hr at 60° C. for 500 mL of the M4N/PEG 300 mixture), or longer as needed to ensure complete dissolution of M4N. […] If crystals formed, the M4N/PEG 300 solution could be heated again at 60° C. for about 1 hr, with stirring, on a hot magnetic plate until all M4N was dissolved back in solution. The final M4N/PEG 300 solution was stored at room temperature and was kept protected from light. This process may be scaled up or down to obtain the requisite volume or concentration of M4N. Formulations containing M4N in other PEGs may be similarly made, such as, for example, by substituting PEG 300 in the process described above with PEG 400 or PEG 400 monolaurate.
This process may be scaled up or down to obtain the requisite volume or concentration of M4N and the heating temperature may be increased or decreased to achieve dissolution of M4N. Formulations containing M4N in other water-insoluble lipids combined with non-ionic surfactants, ionic surfactants or water-soluble organic solvents may be similarly made, such as, for example, by substituting sesame oil or Tween® 20 in the process described above with corn oil, olive oil, soybean oil, peppermint oil, Tween® 80, d-alpha-tocopheryl polyethylene glycol 1000 succinate (TPGS), lecithin, PEG 300, PEG 400, PEG 400 monolaurate, glycerol, polyvinylpyrrolidone (“PVP”), propylene glycol (“PG”), or other solubilizing agents, and combinations thereof.

[2] = Stability of M4N formulations at 4° C. and on centrifugation; format: physicochemical
Protocol: All formulations withstand 4° C. for 24 hr and 5 min. centrifugation at 5000 rpm without forming visible precipitates. The formulation containing 50% PEG 300, 20% HP-β-CD, 12.5 mg/mL M4N stock solution withstands 4° C. for at least 4 months. Dilutions of the same stock made in 1:1 or 1:2 dilutions also withstand 4° C. for at least 4 months.

[3] = system: Beagle dogs; test: 7-Day intravenous infusion toxicity study of M4N(CPE) in Beagle dogs; format: in vivo
Protocol: This study was conducted to evaluate the toxicokinetic profile of M4N formulated in 30% HP-β-CD and 25% PEG 300 when administered as a single intravenous infusion dose for seven consecutive days in beagle dogs. This study constitutes the first study of this particular formulation of M4N in dogs and was executed to evaluate the toxicity and compare tolerability of a diluted formulation (10 mg/mL versus 5 mg/mL).
A total of twelve beagle dogs (8 male/4 female) were dosed with M4N via a 54-minute (Group 2) or 108-minute (Groups 1, 3 and 4) intravenous infusion. All animals received seven doses, one per day over seven consecutive days.
The following parameters were evaluated: clinical observations and body weights. Test article analysis was performed on Study Days 1 and 7, blood samples (targeting a volume of 2.0 mL) were collected from each animal from an appropriate vessel at the following time points:
Gross necropsies were performed on Groups 1 and 3 animals and all injection sites were processed for histology. […] Discolored urine appeared in Groups 1 and 3. […] The finding is likely indicative of irritation due to multiple needle insertions in the same dosing area (cephalic vein). […] Finally, sporadic observations of diarrhea, emesis, mucoid feces and soft feces were noted. These observations are common in beagle dogs and were considered stress-induced and not test article-related.

[4] = 40 mg/mL M4N/PEG 300 stability: visual appearance; format: physicochemical
Protocol: The stability of 40 mg/mL M4N dissolved in 100% PEG 300 was evaluated up to 24 hours incubation at 30° C., 45° C. and 60° C. A stock 40 mg/mL M4N in PEG 300 was prepared at 60° C., following the procedure set forth in Example 17. Subsequently, aliquots were removed and incubated at the appropriate temperature. Samples were rotated at 450 rpm during the entire course of incubation. Visual observations and RP-HPLC data were collected throughout. […] The formation of crystals coincided with a loss of soluble M4N (Table 30). The 40 mg/mL M4N/PEG 300 samples incubated at 45° C. and 60° C. were stable after 24 hours incubation as assessed by visual observations and RP-HPLC analysis (Tables 29 and 30).

COc1ccc(C[C@@H](C)[C@@H](C)Cc2ccc(OC)c(OC)c2)cc1OC [Formulation M4N, meso-1,4-bis(3,4-dimethoxyphenyl)-2,3-dimethylbutane]
Dissolution After Heating ([1]; 40% Propylene Glycol, 10% Ethanol, M4N 10 mg/mL, temperature not given): N
Stability Time at Room Temperature ([1]; Ethanol 100%, M4N 1 mg/mL): >3 days
Dissolution After Heating ([1]; Ethanol 100%, M4N 10 mg/mL, heating at 37° C.): N at 37 °C
Dissolution After Heating ([1]; Glycerol 100%, M4N 1 mg/mL, heating at 70° C.): Y at 70 °C
Dissolution After Heating ([1]; Glycerol 100%, M4N 10 mg/mL, heating at 70° C.): Y at 70 °C
Dissolution After Heating ([1]; Glycerol 100%, M4N 20 mg/mL, heating at 70° C.): Y at 70 °C
Dissolution After Heating ([1]; PEG 300 33%, M4N 10 mg/mL, heating at 50° C.): N at 50 °C
Stability Time at Room Temperature ([1]; PEG 300 100%, M4N 25 mg/mL): <7 days
Dissolution After Heating ([1]; PEG 300 100%, M4N 25 mg/mL, heating at 50° C.): Y at 50 °C
Stability Time at Room Temperature ([1]; PEG 300 100%, M4N 30 mg/mL): <3 days
Dissolution After Heating ([1]; PEG 300 100%, M4N 30 mg/mL, heating at 50° C.): Y at 50 °C
Stability Time at Room Temperature ([1]; PEG 300 100%, M4N 40 mg/mL): <1 days
Dissolution After Heating ([1]; PEG 300 100%, M4N 40 mg/mL, heating at 50° C.): Y at 50 °C
Stability Time at Room Temperature ([1]; PEG 300 100%, M4N 50 mg/mL): <1 days
Dissolution After Heating ([1]; PEG 300 100%, M4N 50 mg/mL, heating at 60° C.): Y at 60 °C
Dissolution After Heating ([1]; PEG 300 100%, M4N 100 mg/mL, heating at 60° C.): Y at 60 °C
Dissolution After Heating ([1]; PEG 400 5%, M4N 10 mg/mL, heating at 50° C.): N at 50 °C
Stability Time at Room Temperature ([1]; PEG 400 100%, M4N 25 mg/mL): <7 days
Dissolution After Heating ([1]; PEG 400 100%, M4N 25 mg/mL, heating at 50° C.): Y at 50 °C
Stability Time at Room Temperature ([1]; PEG 400 100%, M4N 30 mg/mL): <3 days
Dissolution After Heating ([1]; PEG 400 100%, M4N 30 mg/mL, heating at 50° C.): Y at 50 °C
Stability Time at Room Temperature ([1]; PEG 400 100%, M4N 40 mg/mL): <1 days
Dissolution After Heating ([1]; PEG 400 100%, M4N 40 mg/mL, heating at 50° C.): Y at 50 °C
Stability Time at Room Temperature ([1]; PEG 400 100%, M4N 50 mg/mL): <1 days
Dissolution After Heating ([1]; PEG 400 100%, M4N 50 mg/mL, heating at 60° C.): Y at 60 °C
Dissolution After Heating ([1]; PEG 400 100%, M4N 100 mg/mL, heating at 60° C.): Y at 60 °C
Dissolution After Heating ([1]; PEG 400 monolaurate 100%, M4N 20 mg/mL, heating at 50° C.): Y at 50 °C
Dissolution After Heating ([1]; PEG 400 monolaurate 100%, M4N 50 mg/mL, heating at 50° C.): Y at 50 °C
Dissolution After Heating ([1]; PVP 15%, M4N 1 mg/mL, heating at 90° C.): N at 90 °C
Dissolution After Heating ([1]; PVP 15%, M4N 10 mg/mL, heating at 90° C.): N at 90 °C
Stability Time at Room Temperature ([1]; Propylene Glycol 100%, M4N 1 mg/mL): <1 days
Dissolution After Heating ([1]; Propylene Glycol 100%, M4N 1 mg/mL, heating at 55° C.): Y at 55 °C
Stability Time at Room Temperature ([1]; Propylene Glycol 100%, M4N 10 mg/mL): <1 days
Dissolution After Heating ([1]; Propylene Glycol 100%, M4N 10 mg/mL, heating at 55° C.): Y at 55 °C
Stability Time at Room Temperature ([1]; Propylene Glycol 100%, M4N 20 mg/mL): <1 days
Dissolution After Heating ([1]; Propylene Glycol 100%, M4N 20 mg/mL, heating at 55° C.): Y at 55 °C
withstand 4° C. ([2]; 1:1 or 1:2 dilutions of the 50% PEG 300, 20% HP-β-CD, 12.5 mg/mL M4N stock): at least 4 months
withstands 4° C. ([2]; 50% PEG 300, 20% HP-β-CD, 12.5 mg/mL M4N stock solution): at least 4 months
injection site histology, treated vs controls ([3]; Group 3 (90 mg/kg) vs Group 1 (vehicle)): more irritating than the vehicle
gross necropsy findings ([3]; Groups 1 and 3): No other gross findings
detailed clinical observations ([3]; Groups 2, 3 and 4 (45 or 90 mg/kg), daily IV infusion for 7 days, 30% HP-β-CD and 25% PEG 300): transient reversible uncoordination of hindlimbs
visual observation ([4]; 40 mg/mL M4N/PEG 300, 6 hours at 30° C.): tiny crystals were observed
stability by visual observations and RP-HPLC ([4]; 40 mg/mL M4N/PEG 300, 24 hours at 45° C. and 60° C.): stable
